This is an account of results in patent US20240197666A1, “DITERPENOID COMPOUNDS THAT ACT ON PROTEIN KINASE C (PKC)” (K-Gen Therapeutics, Inc., priority 2021, published 2024).

Data set [1] relates to phosphorylation of PKCμ, PKCδ and Erk1/2 in A549 lung cancer cells. Description: Western blot of activation of PKC and downstream target protein in A549 cells. The format is cell-based. To be noted: 0.3 μM, 30 minutes. In short, it runs like this:
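A549 cells grown overnight were treated 30 min with compound at two concentrations. Lysates were analysed by Western blot or Wes with phospho-specific antibodies to PKCμ, PKCδ (including S299) and Erk1/2, using β-actin or vinculin loading controls. Prostratin at 1 μM served as reference.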

The target of data set [2] is T1, C1b domain of human PKCα (Homo sapiens, UniProt P17252).
T1 construct: Genes encoding C1b domains of human PKCα, δ, ε, θ, and PKD1 (PKCμ) were synthesized; made in house; host or cells: E. coli BL21(DE3)
As to the kind of experiment: biochemical. The format is binding. To be noted: 3H-PDBu competition.

Data set [3] relates to CT26 tumors. Description: CT26 syngeneic model, IT injection, efficacy and re-challenge. The format is in vivo, mouse. As for the experimental part:
Each 6-8 weeks old female Balb/c mouse was implanted subcutaneously with 3×10^5 CT26 mouse colon cancer cells. 20 animals were randomized when the average tumor volume reached 60 mm3. Tumor size was measured as described in Example 76. Animal body weight was monitored regularly as an indirect measure of toxicity. All mice tolerated drug treatments very well with less than 10% body weight loss. […] Scabs formed a few days later and the skin recovered with minimal scaring within 3-4 weeks.
For the efficacy portion of the study, the major endpoints were tumor growth inhibition and the animal survival.
To test if anti-tumor immunity was developed in the cured mice, the re-challenge portion of the study was conducted. The major endpoint was the tumor initiation (measurable tumor >50 mm^3) of the re-implanted tumor cells.
CT26 cells (3×10^5) were re-implanted into the right lower flank of the cured animals and 10 age-matched naïve control animals from the same batch to challenge animal immune system. An unrelated 4T1 breast cancer cell line (1×10^5) was implanted in the left upper flank of these animals at the same time. Tumor initiation and tumor growth were monitored. Data points represent group means of the tumor volumes and error bars represent standard error of the mean (SEM).

The test system of data set [4] is 4T1-luc2 tumor. As to the kind of experiment: 4T1-luc2 orthotopic breast cancer metastasis model, IT injection. The format is in vivo, mouse. The text has this: Syngeneic mouse models are frequently used in assessing effect of immune-modulating compounds because both innate and adaptive immune systems are intact in the wild-type mouse strains.
Each 6-8 weeks old female Balb/c mouse was surgically implanted with 1×10^6 4T1-luc2 tumor cells in the abdominal 4th right mammary fat pad for tumor development. The animals were randomized and treatments were started when the average tumor volume reached 86 mm^3. The group assignment, treatment dose, and schedule were as follows:
Mice were monitored daily for clinical signs and body weights were measured regularly as an indirect measure of toxicity. […] .
After grouping, the bioluminescence measurements were taken once per week to monitor tumor growth in the fat pads and metastasis to other organs. Briefly, the mice were weighted and intra-peritoneal injected with luciferin at 150 mg/kg. 10 minutes after the luciferin administration, the animals were pre-anesthetized with the mixture gas of oxygen and isoflurane. The animals were moved into the imaging chamber for bioluminescence measurements with IVIS (Lumina II) in a complete anesthetic state. […] The bioluminescence signal decreased to the baseline range from the third week in three animals. These three animals were monitored for 87 days and their primary tumors were cured without any metastasis (FIG. 9B-9D). […] However, all tumors in the vehicle group mice kept growing, had steady increase in the bioluminescence signals, and had metastasized before mice died before day 40. A Kaplan-Meier method was used to analyze the animal survival rate between the vehicle group (n=12) and the treated group (n=11, one animal died unexpectedly due to animal attacking). The median survival day is 35.5 for the vehicle group and is 42 for the treated group (P<0.05).

Data set [5] concerns the target T2, C1b domain of human PKCθ (Homo sapiens, UniProt Q04759).
T2 construct: Genes encoding C1b domains of human PKCα, δ, ε, θ, and PKD1 (PKCμ) were synthesized; made in house; host or cells: E. coli BL21(DE3)
T2 sequence (Q04759 231-281 limits assumed): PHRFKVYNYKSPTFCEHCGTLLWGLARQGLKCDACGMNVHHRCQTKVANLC
Description: biochemical. The format is binding. To be noted: 3H-PDBu competition. The gist of the method: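 Affinity was measured by competition with the radiotracer 3H-PDBu for recombinant human GST-C1b fusion proteins expressed in E. coli BL21(DE3). Incubation ran 10 minutes at 37° C with shaking, then 20 minutes on ice, and filter-trapped 3H-PDBu was counted by scintillation. IC50 values were converted to Ki by Cheng-Prusoff using the experimentally determined Kd for each protein preparation.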

[6] abbreviates: 20 mg/ml, 20 μl (400 μg) IT, Balb/c mice.
Setting [7] is: challenge of 6 cured mice with 4T1 cells.
Where [8] appears, read: re-challenge of 6 cured mice with CT26 cells, 32 days.

As to `CC1=C[C@H]2[C@@]3(O)[C@H](C)C[C@]4(OC(=O)[C@@H](N)C5Cc6ccccc6C5)[C@H]([C@@H]3C=C(CO)C[C@]2(O)C1=O)C4(C)C`, the “phosphorylation of PKCμ, PKCδ and Erk1/2” value in data set [1] was “induced high levels of phosphorylation”.

The compound `CC1=C[C@H]2[C@@]3(O)[C@H](C)C[C@]4(OC(=O)[C@@H](N)CC5CCCCC5)[C@H]([C@@H]3C=C(CO)C[C@]2(O)C1=O)C4(C)C` gave a Ki in data set [2] of 60 to 100 nM. Also, in data set [1], the “phosphorylation of PKCμ, PKCδ and Erk1/2” value is given as “induced high levels of phosphorylation”.

For the compound `CC1=C[C@H]2[C@@]3(O)[C@H](C)C[C@]4(OC(=O)[C@H](N)CCCCCCc5ccccc5)[C@H]([C@@H]3C=C(CO)C[C@]2(O)C1=O)C4(C)C`, the body weight loss result in data set [3] (setting [6]) was “less than 10%”. For the same compound, the “mice alive at day 50 with tumors completely eradicated” value in data set [3] (N 10) was 6. Moreover, the median survival result in data set [3] (analysis to day 50) is on record as “not reached”. Also, the “Tumor initiation (mice)” value was found to be 6 in data set [3] (setting [7]) and 0 in data set [3] (setting [8]). The “Tumor-free (mice)” value in data set [3] (setting [7]) was found to be 0; in data set [3] (setting [8]), 6. Moreover, the “mice with tumors eliminated” value in data set [3] (day 3 after the first IT dose, N 10) was determined as 8. Moreover, the mean tumor volume in data set [3] (day 12, 20 mg/ml, 20 μl IT) was 35 mm^3. Also, the “mice with tumor relapse” value in data set [3] (from day 10, N 10) came to 4. For the same compound, the “mean body weight loss” value in data set [4] (setting [6]) is on record as “less than 10%”. The compound also displayed a median survival day in data set [4] (20 mg/ml, 20 μl (400 μg) IT, n=11) of 42 days. The “animals with primary tumors cured without any metastasis” value in data set [4] (monitored for 87 days, single IT treatment) is “three”. This compound returned a Ki in data set [5] of 10 to 30 nM.

With `CC1=C[C@H]2[C@@]3(O)[C@H](C)C[C@]4(OC(=O)[C@@H](N)[C@]56C[C@H]7C[C@H](C[C@H](C7)C5)C6)[C@H]([C@@H]3C=C(CO)C[C@]2(O)C1=O)C4(C)C`, the Ki in data set [2] was in the range of 10 to 30 nM.
